Source: patent US6235284A, “Synthetic polypeptides belonging to the hepatitis C virus (HCV) and which can be used especially for detecting the latter” (Bio Merieux, priority 1992, dated 2001)

How the values were obtained:
[1] = system: anti-HCV antibodies binding onto peptide S42G; experiment: Inhibition test: inhibition of binding of anti-HCV antibodies onto peptide S42G by preincubation with peptides; parameters: species or system human; details: inhibitor 0.1 mg/ml
Method: To evaluate this hypothesis, inhibition tests, whose usefulness lies in the fact that they allow the formation of the antigen-antibody complex in liquid medium, were carried out, thus dispensing with possible artifacts linked to the adsorption of peptides onto a solid support.
The inhibition experiments were carried out by reaction, in liquid phase, of the HCV sera with the peptides followed by reaction of the remaining antibodies with the peptide adsorbed onto the microplates. The inhibitory peptides are incubated at a concentration of 0.1 mg/ml with sera of appropriate dilution. The rest of the manipulation is identical to that described for the ELISA test.
Peptide S18D (SEQ ID NO:11), or V22G (SEQ ID NO:12), or a mixture of both, is preincubated overnight in the presence of the serum to be tested. The antibodies can bind onto the corresponding sites.

[2] = system: anti-HCV antibodies (HCV-positive sera); experiment: ELISA detection of anti-HCV antibodies in HCV-positive sera with adsorbed peptides; type: binding, human
In short: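 Peptides were adsorbed at 10 μg/ml for 2 h at 37 °C and blocked with 10% goat serum. Sera, first tested at 1/100, were incubated 1 h at 37 °C, detected with peroxidase anti-human IgG and OPD, and read at OD 492 nm (in places ×10^3), in duplicate.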

V22G: a peptide of 24 amino acids covering sequence 22 to 45 of the CORE protein (VKFPGGGQIVGGVYLLPRRGPRLG)
inhibition ([1]; serum B4, 1/10,000): 83.6%
inhibition ([1]; serum P5, 1/10,000): 83.0%
inhibition ([1]; serum P7, 1/10,000): 81.0%
inhibition ([1]; serum P8, 1/10,000): 77.4%
inhibition ([1]; serum P18, 1/10,000): 48.0%
inhibition ([1]; serum P22, 1/10,000): 65.5%
inhibition ([1]; serum P25, 1/10,000): 71.8%
inhibition ([1]; serum P31, 1/10,000): 39.9%
inhibition ([1]; serum P37, 1/10,000): 88.7%
inhibition ([1]; serum P38, 1/10,000): 70.3%
optical density at 492 nm ([2]; Table 2, line 68, serum not named (below CTS), 1/100): 2.500 OD
optical density at 492 nm ([2]; Table 2, line 69, serum not named (below CTS), 1/1000): 1.605 OD
optical density at 492 nm ([2]; Table 2, line 70, serum not named (below CTS), 1/10000): 0.255 OD
optical density at 492 nm ([2]; Table 2, line 75, serum B4, 1/1000): 1.214 OD
optical density at 492 nm ([2]; Table 2, line 76, serum B4, 1/1000 (so in the source)): 0.144 OD
optical density at 492 nm ([2]; Table 2, serum B1, 1/100): 1.225 OD
optical density at 492 nm ([2]; Table 2, serum B2, 1/100): 0.756 OD
optical density at 492 nm ([2]; Table 2, serum B3, 1/100): 0.329 OD
optical density at 492 nm ([2]; Table 2, serum B4, 1/100): 2.500 OD
optical density at 492 nm ([2]; Table 2, serum B5, 1/100): 0.863 OD
optical density at 492 nm ([2]; Table 2, serum B6, 1/100): 0.749 OD
optical density at 492 nm ([2]; Table 2, serum B7, 1/100): 2.102 OD
optical density at 492 nm ([2]; Table 2, serum B8, 1/100): 0.358 OD
optical density at 492 nm ([2]; Table 2, serum B9, 1/100): 2.082 OD
optical density at 492 nm ([2]; Table 2, serum B10, 1/100): 0.225 OD
optical density at 492 nm ([2]; Table 2, serum B11, 1/100): 0.616 OD
optical density at 492 nm ([2]; Table 2, serum B12, 1/100): 1.017 OD
optical density at 492 nm ([2]; Table 2, serum B13, 1/100): 0.304 OD
optical density at 492 nm ([2]; Table 2, serum B14, 1/100): 0.186 OD
optical density at 492 nm ([2]; Table 2, serum B15, 1/100): 0.954 OD
optical density at 492 nm ([2]; Table 2, serum B16, 1/100): 2.500 OD
optical density at 492 nm ([2]; Table 2, serum CTS, 1/100): 2.500 OD
optical density at 492 nm ([2]; Table 2, serum CTS, 1/1000): 1.155 OD
optical density at 492 nm ([2]; Table 2, serum CTS, 1/10000): 0.043 OD
optical density at 492 nm ([2]; Table 2, serum P1, 1/100): 0.426 OD
optical density at 492 nm ([2]; Table 2, serum P2, 1/100): 0.290 OD
optical density at 492 nm ([2]; Table 2, serum P3, 1/100): 0.503 OD
optical density at 492 nm ([2]; Table 2, serum P4, 1/100): 1.739 OD
optical density at 492 nm ([2]; Table 2, serum P5, 1/100): 2.500 OD
optical density at 492 nm ([2]; Table 2, serum P5, 1/1000): 2.293 OD
optical density at 492 nm ([2]; Table 2, serum P5, 1/10000): 0.578 OD
optical density at 492 nm ([2]; Table 2, serum P6, 1/100): 0.000 OD
optical density at 492 nm ([2]; Table 2, serum P7, 1/100): 2.500 OD
optical density at 492 nm ([2]; Table 2, serum P7, 1/1000): 1.590 OD
optical density at 492 nm ([2]; Table 2, serum P7, 1/10000): 0.237 OD
optical density at 492 nm ([2]; Table 2, serum P8, 1/100): 2.241 OD
optical density at 492 nm ([2]; Table 2, serum P8, 1/1000): 0.476 OD
optical density at 492 nm ([2]; Table 2, serum P8, 1/10000): 0.049 OD
optical density at 492 nm ([2]; Table 2, serum P9, 1/100): 0.008 OD
optical density at 492 nm ([2]; Table 2, serum P10, 1/100): 0.026 OD
optical density at 492 nm ([2]; Table 2, serum P11, 1/100): 2.500 OD
optical density at 492 nm ([2]; Table 2, serum P12, 1/100): 2.500 OD
optical density at 492 nm ([2]; Table 2, serum P12, 1/1000): 2.500 OD
optical density at 492 nm ([2]; Table 2, serum P12, 1/10000): 0.106 OD
optical density at 492 nm ([2]; Table 2, serum P13, 1/100): 0.013 OD
optical density at 492 nm ([2]; Table 2, serum P14, 1/100): 1.778 OD
optical density at 492 nm ([2]; Table 2, serum P15, 1/100): 1.810 OD
optical density at 492 nm ([2]; Table 2, serum P16, 1/100): 2.500 OD
optical density at 492 nm ([2]; Table 2, serum P17, 1/100): 1.832 OD
optical density at 492 nm ([2]; Table 2, serum P18, 1/100): 2.500 OD
optical density at 492 nm ([2]; Table 2, serum P18, 1/1000): 0.598 OD
optical density at 492 nm ([2]; Table 2, serum P18, 1/10000): 0.072 OD
optical density at 492 nm ([2]; Table 2, serum P19, 1/100): 0.010 OD
optical density at 492 nm ([2]; Table 2, serum P20, 1/100): 2.249 OD
optical density at 492 nm ([2]; Table 2, serum P21, 1/100): 2.272 OD
optical density at 492 nm ([2]; Table 2, serum P22, 1/100): 2.500 OD
optical density at 492 nm ([2]; Table 2, serum P22, 1/1000): 0.702 OD
optical density at 492 nm ([2]; Table 2, serum P22, 1/10000): 0.088 OD
optical density at 492 nm ([2]; Table 2, serum P23, 1/100): 0.015 OD
optical density at 492 nm ([2]; Table 2, serum P24, 1/100): 0.579 OD
optical density at 492 nm ([2]; Table 2, serum P25, 1/100): 2.252 OD
optical density at 492 nm ([2]; Table 2, serum P25, 1/1000): 0.695 OD
optical density at 492 nm ([2]; Table 2, serum P25, 1/10000): 0.089 OD
optical density at 492 nm ([2]; Table 2, serum P26, 1/100): 2.500 OD
optical density at 492 nm ([2]; Table 2, serum P26, 1/1000): 1.541 OD
optical density at 492 nm ([2]; Table 2, serum P26, 1/10000): 0.199 OD
optical density at 492 nm ([2]; Table 2, serum P27, 1/100): 1.600 OD
optical density at 492 nm ([2]; Table 2, serum P28, 1/100): 2.500 OD
optical density at 492 nm ([2]; Table 2, serum P29, 1/100): 0.005 OD
optical density at 492 nm ([2]; Table 2, serum P30, 1/100): 2.500 OD
optical density at 492 nm ([2]; Table 2, serum P31, 1/100): 2.500 OD
optical density at 492 nm ([2]; Table 2, serum P31, 1/1000): 2.500 OD
optical density at 492 nm ([2]; Table 2, serum P31, 1/10000): 0.847 OD
optical density at 492 nm ([2]; Table 2, serum P32, 1/100): 1.639 OD
optical density at 492 nm ([2]; Table 2, serum P33, 1/100): 1.987 OD
optical density at 492 nm ([2]; Table 2, serum P34, 1/100): 1.618 OD
optical density at 492 nm ([2]; Table 2, serum P35, 1/100): 1.504 OD
optical density at 492 nm ([2]; Table 2, serum P36, 1/100): 1.226 OD
optical density at 492 nm ([2]; Table 2, serum P37, 1/100): 2.500 OD
optical density at 492 nm ([2]; Table 2, serum P37, 1/1000): 0.865 OD
optical density at 492 nm ([2]; Table 2, serum P37, 1/10000): 0.128 OD
optical density at 492 nm ([2]; Table 2, serum P38, 1/100): 2.500 OD
optical density at 492 nm ([2]; Table 2, serum P38, 1/1000): 1.582 OD
optical density at 492 nm ([2]; Table 2, serum P38, 1/10000): 0.057 OD
optical density at 492 nm ([2]; Table 2, serum P39, 1/100): 1.835 OD
optical density at 492 nm ([2]; Table 2, serum P40, 1/100): 2.500 OD
optical density at 492 nm ([2]; Table 2, serum P41, 1/100): 2.218 OD
optical density at 492 nm ([2]; Table 2, serum P42, 1/100): 0.000 OD
reactivity towards HCV-positive sera ([2]; in words): carry one or more epitopes
